Data from patent US7157498B2, “Diamines having a CaSR modulating activity” (Centre National de la Recherche Scientifique (CNRS), priority 2000, dated 2007).

How the values were obtained:
CaSR [1] = target: T1, CaSR (Rattus norvegicus, UniProt P48442); assay: Accumulation of tritiated inositol phosphates [3H]IP induced by 9 mM extracellular Ca2+ in transfected CHO(CaSR) cells; format: cell-based; conditions: for remaining activity at 10 µM: 0.5 h, compounds at 10 μM, induced by 9 mM Ca2+, control = 9 mM (Ca2+)e alone = 100, mean of 2 to 4 experiments, read-out: Accumulation of [^3H]IP % relative to the control; for remaining activity at 10 µM / inhibition of the accumulation of [^3H]IP induced by 9 mM (Ca^2+)e: CHO(CaSR) cells; for inhibition of the accumulation of [^3H]IP induced by 9 mM (Ca^2+)e / type of activity on production of [^3H]IP (calcimimetic/calcilytic): 10 μM compound, 9 mM (Ca2+)e
T1 construct: expressed in transfected cells; host or cells: CHO (Chinese hamster ovary) cells
T1 sequence (P48442 20-1079): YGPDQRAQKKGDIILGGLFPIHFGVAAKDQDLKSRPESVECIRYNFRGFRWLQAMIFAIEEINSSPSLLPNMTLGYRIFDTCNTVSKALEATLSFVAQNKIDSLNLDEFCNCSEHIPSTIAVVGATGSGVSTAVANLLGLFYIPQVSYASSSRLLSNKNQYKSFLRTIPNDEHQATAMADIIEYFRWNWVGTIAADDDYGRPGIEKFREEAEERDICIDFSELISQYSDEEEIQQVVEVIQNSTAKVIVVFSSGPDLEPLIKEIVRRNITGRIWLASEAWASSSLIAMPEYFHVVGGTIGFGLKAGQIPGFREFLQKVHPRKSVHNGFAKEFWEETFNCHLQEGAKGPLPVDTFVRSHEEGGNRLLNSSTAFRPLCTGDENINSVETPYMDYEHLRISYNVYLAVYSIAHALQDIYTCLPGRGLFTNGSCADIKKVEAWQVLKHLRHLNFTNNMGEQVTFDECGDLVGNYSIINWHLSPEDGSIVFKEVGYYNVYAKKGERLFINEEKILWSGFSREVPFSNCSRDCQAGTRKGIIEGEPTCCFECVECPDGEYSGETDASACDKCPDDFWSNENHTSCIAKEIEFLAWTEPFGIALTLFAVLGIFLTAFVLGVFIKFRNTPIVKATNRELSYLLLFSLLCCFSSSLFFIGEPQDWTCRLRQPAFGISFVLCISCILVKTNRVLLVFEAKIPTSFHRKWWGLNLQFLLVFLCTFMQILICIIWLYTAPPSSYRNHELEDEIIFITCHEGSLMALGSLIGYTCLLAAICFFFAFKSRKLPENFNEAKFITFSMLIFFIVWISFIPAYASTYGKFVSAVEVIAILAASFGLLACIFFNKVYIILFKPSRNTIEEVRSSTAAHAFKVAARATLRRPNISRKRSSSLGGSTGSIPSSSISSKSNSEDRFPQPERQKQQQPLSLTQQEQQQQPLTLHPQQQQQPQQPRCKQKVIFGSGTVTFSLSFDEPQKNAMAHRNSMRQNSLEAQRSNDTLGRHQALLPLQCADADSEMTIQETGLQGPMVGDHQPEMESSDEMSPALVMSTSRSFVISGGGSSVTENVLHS
Source text: Complementary DNA encoding rat CaSR has been isolated from a rat striatum cDNA library (Ruat et al., Proc. Natl. Acad. Sci., 1995, vol. 92, p. 3161–3165). This receptor is identical with respect to its amino acid sequence to that expressed in the other tissues. Transfected Chinese hamster ovary_(CHO) cells expressing rat CaSR(CHO(CaSR)) have been characterized and the chemical signals (second messengers) induced by the activation of this receptor have been analyzed. Thus, a biochemical test which makes it possible to measure the accumulation of tritiated inositol phosphates [^3H]IP in response to the activation of the receptor has been developed (Ruat et al., J. Biol. Chem., 1996, vol. 271, p. 5972–5975; Ferry et al., Biochem. Biophys. Res. Commun., 1997, vol. 238, p. 866–873).
The technique for measuring the accumulation of tritiated inositol phosphates [^3H]IP which is used is that described in Ruat et al., J. Biol. Chem., 1996, vol. 271, p. 5972-5975. Only the mode of incubating the compounds is modified. After a preincubation of 15 min of the compounds according to the invention in the presence of a basal concentration of (Ca^2+)e equal to 2 mM, the compounds are incubated for 30 min in the presence of a (Ca^2+)e concentration of 4 or 9 mM. The results, mean of 2 to 4 independent experiments each carried out in triplicate, are grouped together in Table 2.
The activity of the compounds is expressed as a percentage of the control activity measured in the presence of (Ca^2+)e alone of concentration 4 mM or 9 mM.

[2] = clinical trials Phase I-II; cited from earlier work
[3] = tested on: cell proliferation in the parathyroid gland; conditions: rat model reproducing chronic renal insufficiency; cited from earlier work
CaSR [4] = target: T1, CaSR; assay: Specificity: [3H]IP accumulation by compound alone in CHO(CaSR) cells, relative to basal level at 2 mM Ca2+; format: cell-based; conditions: compound alone at 10 μM; CHO(CaSR) cells (sentence also names control CHO(WT*) cells)
Procedure: (§1) To assess the specificity of the antagonist activity of the molecules according to the invention, the effect of one of them, PHD 263, was studied under various calcium conditions, in the presence or otherwise of ATP on CHO(WT*) and CHO(CaSR) cells. […] The accumulation of tritiated inositol phosphates is expressed as a percentage of the basal level observed in the presence of 2 mM Ca^2+ (100) in the CHO(WT*) or CHO(CaSR) cells.

CHO(WT*) cells = assay: Specificity: [3H]IP accumulation in control CHO(WT*) cells not expressing CaSR, various calcium, with or without ATP; format: cell-based, Chinese hamster; conditions: PHD 263 10 μM
Procedure: as §1
PHD 263 (10 μM) has the same effect on the [^3H]IP response in the CHO(WT*) cells in the presence of 2 or 4 mM calcium, indicating an absence of a nonspecific effect of the compound linked to the variation of [Ca^2+]e.

Row | remaining activity at 10 µM (CaSR [1]) [%] | Compound | also measured
1 | 100 ± 4 | COc1ccc(OC)c(S(=O)(=O)NC2CCCC[C@@H]2NC(C)c2cccc3ccccc23)c1 (some centres unmarked) [AK 115] | 
2 | 40 ± 5 | CC(N[C@H]1CCCCC1NS(=O)(=O)c1cccc(Cl)c1)c1cccc2ccccc12 (some centres unmarked) [AK 116] | 
3 | 42 ± 5 | CC(N[C@H]1CCCCC1NS(=O)(=O)c1ccc(Cl)c(Cl)c1Cl)c1cccc2ccccc12 (some centres unmarked) [AK 117] | 
4 |  | COc1cccc([C@@H](C)NCCCc2ccccc2Cl)c1 [NPS-R-568] | bioavailability [2]: low bioavailability; reduction of cell proliferation observed in the parathyroid gland [3]: 20–50%
5 | 37 ± 5 | COc1ccc(S(=O)(=O)NC2CCCC[C@@H]2NC(C)c2cccc3ccccc23)cc1.Cl (some centres unmarked) [PHD 263, N1-(4-methoxybenzenesulfonyl)-N-2-[1-(1-naphthyl)ethyl]cyclohexane-1,2-diamine] | inhibition of the accumulation of [^3H]IP induced by 9 mM (Ca^2+)e (CaSR [1]): 64%; melting point: 135 to 140 °C (dec.); accumulation of [^3H]IP as percentage of the basal level observed at 2 mM Ca2+ (100) (CaSR [4]): 124±10%; effect on the ATP-induced [^3H]IP response (CHO(WT*) cells; CHO(WT) cells, in the presence of ATP): adds to that of ATP; effect on the [^3H]IP response at 2 versus 4 mM calcium (CHO(WT*) cells; CHO(WT*) cells, 2 or 4 mM calcium): same effect
6 | 110 ± 6 | CC(N[C@H]1CCCCC1NCc1ccccc1Cl)c1cccc2ccccc12.Cl.Cl (some centres unmarked) [PHD 346] | type of activity on production of [^3H]IP (calcimimetic/calcilytic) (CaSR [1]): calcimimetic activity
7 | 119 ± 12 | CC(N[C@H]1CCCCC1NCc1ccc(F)cc1)c1cccc2ccccc12.Cl.Cl (some centres unmarked) [PHD 348] | type of activity on production of [^3H]IP (calcimimetic/calcilytic) (CaSR [1]): calcimimetic activity
8 | 64 ± 5 | COc1ccc(S(=O)(=O)NC2CCCC[C@@H]2NC(C)c2cccc3ccccc23)cc1OC (some centres unmarked) [PHD 349] | 
9 | 74 ± 2 | CC(N[C@H]1CCCCC1NS(=O)(=O)c1ccccc1Cl)c1cccc2ccccc12 (some centres unmarked) [PHD 350] | inhibition of the accumulation of [^3H]IP induced by 9 mM (Ca^2+)e (CaSR [1]): 25%
10 | 43 ± 1 | CC(N[C@H]1CCCCC1NS(=O)(=O)c1ccc([N+](=O)[O-])cc1)c1cccc2ccccc12 (some centres unmarked) [PHD 397] | 
11 | 18 ± 3 | CC(N[C@H]1CCCCC1NS(=O)(=O)c1ccc(OC(F)(F)F)cc1)c1cccc2ccccc12.Cl (some centres unmarked) [PHD 401] | inhibition of the accumulation of [^3H]IP induced by 9 mM (Ca^2+)e (CaSR [1]): 82%
12 | 21 ± 1 | CC(N[C@H]1CCCCC1NS(=O)(=O)c1ccc(C(F)(F)F)cc1)c1cccc2ccccc12 (some centres unmarked) [PHD 403] | 
13 | 39 ± 7 | CC(N[C@H]1CCCCC1NS(=O)(=O)c1ccc2ccccc2c1)c1cccc2ccccc12 (some centres unmarked) [PHD 404] | 
14 | 28 ± 1 | CC(N[C@H]1CCCCC1NS(=O)(=O)c1ccc(Cl)cc1)c1cccc2ccccc12 (some centres unmarked) [PHD 406] | 
15 | 56 ± 4 | CC(N[C@H]1CCCCC1NS(=O)(=O)c1ccccc1)c1cccc2ccccc12 (some centres unmarked) [PHD 408] | 
16 | 75 ± 10 | COc1ccc(S(=O)(=O)NC2CC=CC[C@@H]2NC(C)c2cccc3ccccc23)cc1 (some centres unmarked) [PHD 511] | 
